Consider three compounds from ChEMBL document CHEMBL3991601, “The target landscape of clinical kinase drugs” (Science, 2017).

Experiment [1] deals with T1, Membrane-associated tyrosine- and threonine-specific cdc2-inhibitory kinase (Homo sapiens, UniProt Q99640).
T1 sequence (Q99640 whole entry): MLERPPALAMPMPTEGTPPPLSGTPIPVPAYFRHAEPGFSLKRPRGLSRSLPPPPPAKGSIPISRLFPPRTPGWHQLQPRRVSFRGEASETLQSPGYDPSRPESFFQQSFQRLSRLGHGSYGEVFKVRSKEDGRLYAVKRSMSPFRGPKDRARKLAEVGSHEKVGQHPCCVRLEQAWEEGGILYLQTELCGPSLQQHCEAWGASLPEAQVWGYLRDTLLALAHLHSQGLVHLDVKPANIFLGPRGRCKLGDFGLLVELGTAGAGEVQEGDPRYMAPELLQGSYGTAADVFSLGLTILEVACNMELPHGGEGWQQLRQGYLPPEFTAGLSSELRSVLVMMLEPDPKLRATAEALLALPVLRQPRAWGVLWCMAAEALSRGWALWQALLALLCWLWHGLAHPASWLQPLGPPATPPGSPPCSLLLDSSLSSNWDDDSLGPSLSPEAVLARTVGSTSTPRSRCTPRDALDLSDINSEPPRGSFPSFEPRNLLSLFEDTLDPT

In experiment [2] the target is Serine/threonine-protein kinase/endoribonuclease IRE2 (Homo sapiens, UniProt Q76MJ5).
Experiment [3] addresses Chromodomain-helicase-DNA-binding protein 4 (Homo sapiens, UniProt Q14839).
Experiment [4] addresses T2, EKC/KEOPS complex subunit TP53RK (Homo sapiens, UniProt Q96S44).
T2 sequence (Q96S44 whole entry): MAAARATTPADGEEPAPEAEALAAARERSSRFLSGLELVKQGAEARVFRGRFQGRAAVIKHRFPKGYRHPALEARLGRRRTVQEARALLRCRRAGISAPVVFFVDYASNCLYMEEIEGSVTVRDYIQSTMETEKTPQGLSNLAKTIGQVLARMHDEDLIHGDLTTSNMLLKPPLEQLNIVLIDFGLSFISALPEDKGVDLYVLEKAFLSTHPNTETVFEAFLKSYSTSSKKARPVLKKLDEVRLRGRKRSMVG

In experiment [5] the target is Rho-associated protein kinase 2 (Homo sapiens, UniProt O75116).
Experiment [6] concerns the target ATP-dependent RNA helicase DDX3X (Homo sapiens, UniProt O00571).
In experiment [7] the target is Tyrosine-protein kinase ABL2 (Homo sapiens, UniProt P42684).
The target in experiment [8] is Casein kinase I isoform gamma-1 (Homo sapiens, UniProt Q9HCP0).
In experiment [9] the target is T3, Mitogen-activated protein kinase kinase kinase 2 (Homo sapiens, UniProt Q9Y2U5).
T3 sequence (Q9Y2U5 whole entry): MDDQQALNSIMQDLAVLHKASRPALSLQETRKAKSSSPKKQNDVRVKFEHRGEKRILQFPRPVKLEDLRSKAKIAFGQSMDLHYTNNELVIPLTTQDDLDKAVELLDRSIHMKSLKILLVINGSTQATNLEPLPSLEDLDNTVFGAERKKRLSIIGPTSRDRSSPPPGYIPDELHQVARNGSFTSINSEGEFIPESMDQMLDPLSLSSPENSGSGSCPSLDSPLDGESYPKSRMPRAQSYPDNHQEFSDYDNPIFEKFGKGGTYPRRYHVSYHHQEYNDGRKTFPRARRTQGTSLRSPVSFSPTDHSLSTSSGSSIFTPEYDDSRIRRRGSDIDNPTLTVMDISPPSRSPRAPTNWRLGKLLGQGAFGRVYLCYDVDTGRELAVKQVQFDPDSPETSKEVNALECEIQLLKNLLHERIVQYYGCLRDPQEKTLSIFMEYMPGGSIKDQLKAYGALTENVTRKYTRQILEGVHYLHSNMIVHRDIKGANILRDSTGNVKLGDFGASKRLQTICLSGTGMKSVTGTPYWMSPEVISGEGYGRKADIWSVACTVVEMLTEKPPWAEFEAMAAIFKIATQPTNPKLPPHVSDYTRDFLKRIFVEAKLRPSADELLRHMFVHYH

The target of experiment [10] is Bone morphogenetic protein receptor type-1B (Homo sapiens, UniProt O00238).
Experiment [11] addresses T4, Glycogen phosphorylase, brain form (Homo sapiens, UniProt P11216).
T4 sequence (P11216 whole entry): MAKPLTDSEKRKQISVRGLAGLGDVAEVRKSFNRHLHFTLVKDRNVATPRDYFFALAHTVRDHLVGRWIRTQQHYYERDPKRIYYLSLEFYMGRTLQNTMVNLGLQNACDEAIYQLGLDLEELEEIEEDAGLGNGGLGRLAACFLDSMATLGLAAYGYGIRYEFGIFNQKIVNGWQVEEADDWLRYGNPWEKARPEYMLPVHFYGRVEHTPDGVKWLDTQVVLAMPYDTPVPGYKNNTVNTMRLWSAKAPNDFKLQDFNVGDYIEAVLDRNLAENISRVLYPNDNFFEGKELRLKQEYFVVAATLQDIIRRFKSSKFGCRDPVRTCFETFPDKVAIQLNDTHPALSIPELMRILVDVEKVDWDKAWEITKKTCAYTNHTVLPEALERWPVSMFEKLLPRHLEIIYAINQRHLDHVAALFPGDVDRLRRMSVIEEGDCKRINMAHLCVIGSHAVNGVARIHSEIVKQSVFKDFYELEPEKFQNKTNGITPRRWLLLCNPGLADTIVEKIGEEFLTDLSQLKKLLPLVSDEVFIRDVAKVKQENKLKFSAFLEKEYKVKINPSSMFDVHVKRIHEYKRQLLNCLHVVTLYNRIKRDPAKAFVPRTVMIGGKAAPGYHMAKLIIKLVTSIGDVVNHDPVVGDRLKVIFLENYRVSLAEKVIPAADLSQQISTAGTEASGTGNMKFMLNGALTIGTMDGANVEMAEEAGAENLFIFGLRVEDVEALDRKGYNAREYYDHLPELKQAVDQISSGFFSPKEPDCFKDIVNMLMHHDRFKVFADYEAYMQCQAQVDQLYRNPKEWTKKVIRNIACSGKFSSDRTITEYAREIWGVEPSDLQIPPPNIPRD

Experiment [12] concerns the target Mitogen-activated protein kinase kinase kinase kinase 1 (Homo sapiens, UniProt Q92918).
Experiment [13] addresses RAC-alpha serine/threonine-protein kinase (Homo sapiens, UniProt P31749).
A further experiment addresses DNA topoisomerase 2-beta (Homo sapiens, UniProt Q02880).

Calls of active or inactive are those of the source.
Also: in the data inactive means no Kd found up to 30 µM.

Chain of Rho-associated protein kinase 2 (O75116 whole entry): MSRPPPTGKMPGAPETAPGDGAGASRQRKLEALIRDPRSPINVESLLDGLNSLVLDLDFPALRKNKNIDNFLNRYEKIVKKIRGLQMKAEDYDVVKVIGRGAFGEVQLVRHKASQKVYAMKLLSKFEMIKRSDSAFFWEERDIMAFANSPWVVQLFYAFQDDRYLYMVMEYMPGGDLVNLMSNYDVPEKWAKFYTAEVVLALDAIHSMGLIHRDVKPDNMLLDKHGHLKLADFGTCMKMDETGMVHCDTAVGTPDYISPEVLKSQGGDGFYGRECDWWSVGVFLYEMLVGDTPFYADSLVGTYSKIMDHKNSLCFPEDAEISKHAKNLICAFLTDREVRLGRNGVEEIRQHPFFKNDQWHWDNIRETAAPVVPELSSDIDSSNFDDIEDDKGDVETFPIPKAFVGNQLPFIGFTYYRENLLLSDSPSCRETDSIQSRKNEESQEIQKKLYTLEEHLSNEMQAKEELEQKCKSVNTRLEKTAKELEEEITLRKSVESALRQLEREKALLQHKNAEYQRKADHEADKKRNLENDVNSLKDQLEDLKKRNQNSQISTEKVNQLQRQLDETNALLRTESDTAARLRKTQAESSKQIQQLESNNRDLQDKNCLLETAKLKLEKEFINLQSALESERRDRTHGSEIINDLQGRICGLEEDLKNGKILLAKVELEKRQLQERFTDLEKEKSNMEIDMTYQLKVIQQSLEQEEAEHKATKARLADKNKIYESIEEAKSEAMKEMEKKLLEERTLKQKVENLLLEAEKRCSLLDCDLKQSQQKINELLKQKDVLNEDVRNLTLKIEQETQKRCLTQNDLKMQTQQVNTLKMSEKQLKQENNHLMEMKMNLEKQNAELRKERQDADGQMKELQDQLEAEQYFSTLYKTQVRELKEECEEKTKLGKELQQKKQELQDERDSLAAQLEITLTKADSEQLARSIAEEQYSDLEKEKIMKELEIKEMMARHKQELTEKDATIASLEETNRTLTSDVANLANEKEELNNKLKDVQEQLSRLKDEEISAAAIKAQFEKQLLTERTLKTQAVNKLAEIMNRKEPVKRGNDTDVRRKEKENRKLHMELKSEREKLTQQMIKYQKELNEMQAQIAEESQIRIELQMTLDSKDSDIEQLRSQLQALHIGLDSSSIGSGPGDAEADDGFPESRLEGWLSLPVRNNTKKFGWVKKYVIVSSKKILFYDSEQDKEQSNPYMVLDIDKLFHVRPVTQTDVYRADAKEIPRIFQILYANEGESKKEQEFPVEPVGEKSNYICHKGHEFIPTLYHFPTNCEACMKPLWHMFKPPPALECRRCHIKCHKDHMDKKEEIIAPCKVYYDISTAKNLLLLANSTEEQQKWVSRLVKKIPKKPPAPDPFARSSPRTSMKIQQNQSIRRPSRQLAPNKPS
Chain of Mitogen-activated protein kinase kinase kinase kinase 1 (Q92918 whole entry): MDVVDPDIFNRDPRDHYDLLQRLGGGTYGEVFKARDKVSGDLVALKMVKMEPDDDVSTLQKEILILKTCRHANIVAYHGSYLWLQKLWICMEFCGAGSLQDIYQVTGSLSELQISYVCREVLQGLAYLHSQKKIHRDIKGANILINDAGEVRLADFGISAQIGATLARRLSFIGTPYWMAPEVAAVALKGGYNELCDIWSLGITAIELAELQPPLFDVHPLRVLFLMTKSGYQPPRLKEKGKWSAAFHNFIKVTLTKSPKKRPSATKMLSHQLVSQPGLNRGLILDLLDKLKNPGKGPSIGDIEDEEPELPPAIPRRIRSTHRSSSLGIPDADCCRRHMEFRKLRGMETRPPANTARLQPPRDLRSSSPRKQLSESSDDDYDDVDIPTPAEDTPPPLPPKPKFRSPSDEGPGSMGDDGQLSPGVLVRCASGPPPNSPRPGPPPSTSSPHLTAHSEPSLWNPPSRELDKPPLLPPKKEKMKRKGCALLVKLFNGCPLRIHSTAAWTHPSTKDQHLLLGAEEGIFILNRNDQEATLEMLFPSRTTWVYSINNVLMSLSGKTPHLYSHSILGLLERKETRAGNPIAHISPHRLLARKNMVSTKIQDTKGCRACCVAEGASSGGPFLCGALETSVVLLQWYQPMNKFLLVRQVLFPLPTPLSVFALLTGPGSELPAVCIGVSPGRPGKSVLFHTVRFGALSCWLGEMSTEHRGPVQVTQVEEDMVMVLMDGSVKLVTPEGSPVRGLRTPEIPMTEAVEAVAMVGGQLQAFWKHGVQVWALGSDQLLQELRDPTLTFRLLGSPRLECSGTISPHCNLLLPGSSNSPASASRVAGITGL
Chain of Tyrosine-protein kinase ABL2 (P42684 whole entry, canonical isoform): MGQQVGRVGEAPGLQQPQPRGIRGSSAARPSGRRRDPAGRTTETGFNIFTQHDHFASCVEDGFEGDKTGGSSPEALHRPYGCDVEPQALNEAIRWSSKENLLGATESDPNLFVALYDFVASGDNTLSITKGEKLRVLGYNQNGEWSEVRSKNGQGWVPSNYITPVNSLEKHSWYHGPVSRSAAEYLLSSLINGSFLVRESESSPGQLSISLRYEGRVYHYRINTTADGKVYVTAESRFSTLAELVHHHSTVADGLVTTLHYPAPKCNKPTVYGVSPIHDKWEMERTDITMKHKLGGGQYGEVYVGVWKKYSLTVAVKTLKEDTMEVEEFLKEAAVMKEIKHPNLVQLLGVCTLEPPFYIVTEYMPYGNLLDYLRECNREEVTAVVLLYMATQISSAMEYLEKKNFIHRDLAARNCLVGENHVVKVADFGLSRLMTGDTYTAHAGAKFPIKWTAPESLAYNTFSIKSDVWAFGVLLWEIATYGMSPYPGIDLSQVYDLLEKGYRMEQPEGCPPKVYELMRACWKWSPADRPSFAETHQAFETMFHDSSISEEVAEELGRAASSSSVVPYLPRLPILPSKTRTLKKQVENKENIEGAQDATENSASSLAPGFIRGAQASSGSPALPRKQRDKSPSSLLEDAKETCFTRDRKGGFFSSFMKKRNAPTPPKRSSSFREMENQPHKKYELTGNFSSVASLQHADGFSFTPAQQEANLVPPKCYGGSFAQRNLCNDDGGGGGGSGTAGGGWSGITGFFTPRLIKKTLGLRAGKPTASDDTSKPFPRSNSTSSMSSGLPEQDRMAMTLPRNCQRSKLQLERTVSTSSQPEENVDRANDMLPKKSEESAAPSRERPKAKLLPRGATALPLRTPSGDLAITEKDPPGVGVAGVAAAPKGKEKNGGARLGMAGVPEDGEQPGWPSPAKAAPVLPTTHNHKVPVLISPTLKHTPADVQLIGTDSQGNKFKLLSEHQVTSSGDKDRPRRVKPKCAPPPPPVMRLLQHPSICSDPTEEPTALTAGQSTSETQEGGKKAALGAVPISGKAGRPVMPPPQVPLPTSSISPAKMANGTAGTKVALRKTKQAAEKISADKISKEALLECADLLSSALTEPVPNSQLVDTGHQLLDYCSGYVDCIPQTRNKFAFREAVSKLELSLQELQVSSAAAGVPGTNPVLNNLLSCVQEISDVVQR
Chain of ATP-dependent RNA helicase DDX3X (O00571 whole entry): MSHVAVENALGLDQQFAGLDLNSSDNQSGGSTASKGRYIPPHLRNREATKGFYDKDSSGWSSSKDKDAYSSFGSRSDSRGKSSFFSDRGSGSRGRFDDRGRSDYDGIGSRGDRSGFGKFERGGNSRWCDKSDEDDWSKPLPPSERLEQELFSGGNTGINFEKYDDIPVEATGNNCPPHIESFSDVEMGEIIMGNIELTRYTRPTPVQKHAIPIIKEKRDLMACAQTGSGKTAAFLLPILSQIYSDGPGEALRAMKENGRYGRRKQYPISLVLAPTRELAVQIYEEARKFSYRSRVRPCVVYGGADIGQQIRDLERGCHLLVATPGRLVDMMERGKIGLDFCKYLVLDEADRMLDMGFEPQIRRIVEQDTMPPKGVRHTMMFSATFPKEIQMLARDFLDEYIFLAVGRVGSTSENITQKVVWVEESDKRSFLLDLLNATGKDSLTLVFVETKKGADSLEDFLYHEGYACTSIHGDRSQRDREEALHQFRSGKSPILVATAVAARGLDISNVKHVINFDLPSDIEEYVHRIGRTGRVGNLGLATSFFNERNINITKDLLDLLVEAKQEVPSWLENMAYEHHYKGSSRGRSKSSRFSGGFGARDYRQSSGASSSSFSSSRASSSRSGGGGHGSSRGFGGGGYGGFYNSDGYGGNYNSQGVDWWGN
Chain of Bone morphogenetic protein receptor type-1B (O00238 whole entry): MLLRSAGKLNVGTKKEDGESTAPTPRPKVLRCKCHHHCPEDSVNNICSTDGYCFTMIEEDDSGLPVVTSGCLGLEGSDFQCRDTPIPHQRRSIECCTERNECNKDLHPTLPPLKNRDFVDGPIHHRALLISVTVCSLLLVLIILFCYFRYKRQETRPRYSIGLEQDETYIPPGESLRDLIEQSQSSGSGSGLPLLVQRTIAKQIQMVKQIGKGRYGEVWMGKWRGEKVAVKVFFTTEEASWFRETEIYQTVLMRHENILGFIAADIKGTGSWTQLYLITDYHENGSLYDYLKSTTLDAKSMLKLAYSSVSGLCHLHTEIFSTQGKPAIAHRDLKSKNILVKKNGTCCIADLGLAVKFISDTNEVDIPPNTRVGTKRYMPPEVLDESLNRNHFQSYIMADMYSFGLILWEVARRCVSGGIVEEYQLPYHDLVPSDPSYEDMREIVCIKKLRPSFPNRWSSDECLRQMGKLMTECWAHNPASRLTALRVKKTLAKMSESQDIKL
Chain of Casein kinase I isoform gamma-1 (Q9HCP0 whole entry, canonical isoform): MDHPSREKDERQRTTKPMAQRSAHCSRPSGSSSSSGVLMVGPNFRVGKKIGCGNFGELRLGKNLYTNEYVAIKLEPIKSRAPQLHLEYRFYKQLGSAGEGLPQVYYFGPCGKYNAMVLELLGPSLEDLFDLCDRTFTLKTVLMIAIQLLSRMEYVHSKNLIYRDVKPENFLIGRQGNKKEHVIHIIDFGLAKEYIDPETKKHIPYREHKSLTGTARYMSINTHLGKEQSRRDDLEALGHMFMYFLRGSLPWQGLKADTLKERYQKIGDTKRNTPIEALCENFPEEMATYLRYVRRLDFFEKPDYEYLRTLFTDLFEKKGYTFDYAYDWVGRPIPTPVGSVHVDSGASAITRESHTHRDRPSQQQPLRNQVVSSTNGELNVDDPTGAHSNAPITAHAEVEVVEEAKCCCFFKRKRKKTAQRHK

The term Kd denotes the equilibrium constant for the complex coming apart. As to `C[C@@H](NC(=O)c1ncnc(N)c1Cl)c1ncc(C(=O)Nc2cc(C(F)(F)F)c(Cl)cn2)s1` [TOVORAFENIB], the Kd in experiment [1], in experiment [2], in experiment [3], in experiment [4], in experiment [5] and in [6] was > 30 µM (inactive) throughout. Also, the dissociation constant Kd in [7] was 0.099 µM (active); in experiment [8], > 30 µM (inactive); in experiment [9], > 30 µM (inactive); in [10], > 30 µM (inactive); in experiment [11], > 30 µM (inactive); in experiment [12], > 30 µM (inactive). Moreover, the Kd (in experiment [13]; at DNA topoisomerase 2-beta) was > 30 µM (inactive) each time.
For `Cc1cc(Nc2ncnc3ccc(NC4=NC(C)(C)CO4)cc23)ccc1Oc1ccn2ncnc2c1` [TUCATINIB], the Kd in [1], in experiment [2], in experiment [3], in experiment [4], in [5] and in experiment [6] was > 30 µM (inactive) each time. Also, the Kd in experiment [7], in experiment [8], in experiment [9], in experiment [10], in [11] and in experiment [12] was > 30 µM (inactive) in each case. The Kd (in experiment [13]; on DNA topoisomerase 2-beta) was > 30 µM (inactive) throughout.
Take `CN1C/C=C/CCOc2cccc(c2)-c2ccnc(n2)Nc2cccc(c2)C1` [ZOTIRACICLIB]: the Kd in [1] is > 30 µM (inactive); in experiment [2], > 30 µM (inactive); in experiment [3], > 30 µM (inactive); in experiment [4], > 30 µM (inactive); in [5], 59 µM; in experiment [6], > 30 µM (inactive). Further, the Kd in experiment [7], in [8], in [9], in experiment [10], in experiment [11] and in experiment [12] was > 30 µM (inactive) in each case. Besides, the Kd (in experiment [13]; on DNA topoisomerase 2-beta) was > 30 µM (inactive) in each case.
